Columns and labels:
[1] = PLAG uptake in the cisterna chyli (TG colorimetric assay); type: in vivo, mice
Procedure: Balb/c mice were purchased from Koatech Co. (Pyungtaek, Republic of Korea) and maintained under specific pathogen-free conditions. All animal experimental procedures were performed in accordance with the Guide for the Care and Use of Laboratory Animals. The study included 30 male Balb/c mice (mean age: 9 weeks, range: 8 to 10 weeks). For the time point study (experiment 1), mice were divided into 5 groups, with 3 mice per group. Mice were given a single administration of PLAG orally (2500 mg/kg BW) in a volume of 150 μL. And then mice are sacrificed after various time intervals, 0, 15, 30 and 60 minutes. To determine the difference in PLAG concentration (experiment 2), mice were divided into 5 groups, with 3 mice per group. They were given a single administration of PLAG orally (50, 250, 500, and 2500 mg/kg BW) in a volume of 150 μL, then sacrificed after 1 h post-injection.
The blood sample was obtained under anesthesia by heart puncture. Serum samples were separated by centrifuge 3,000 rpm for 10 minutes and stored at −80° C. for analysis. Lymph fluid from the cisterna chyli was collected according to the methods described by Masayuki, lymph fluid in cisterna chyli appears milky white color with a high concentration of triglyceride (TG) and located along the abdominal vena cava and aorta on the cranial side of the renal vein. A 30 ½-gauge syringe was carefully inserted into cisterna chyli. Then recovered the lymphatic fluid, diluted liquid with 10 uL of phosphate-buffered saline (Welgene, Gyeongsangbuk-do, Republic of Korea). Diluted lymph fluid samples were kept frozen for assay.
Triglyceride in blood and lymph fluid was measured using a commercial assay kit (Wako Diagnostics, Osaka, Japan). Because PLAG has structural similarities to TGs containing glycerol backbone, this method may be applicable to PLAG detection. Multi calibrator lipids (Wako) were used for standard reagent. The absorbance was read at 650 nm using an ELISA microplate reader (Molecular Devices Corporation).
2500mpk of PLAG was orally administered to diet mice whose body weight is 25 g, absorbed PLAG was collected from cisterna chyli at 1 hr. Absorbed PLAG was evaluated by TG colorimetric assay. The TG concentration was multiplied by the dilution factor and the conversion factor, which is the coefficient required to convert to triglyceride concentration to the PLAG concentration. Administered 62.5 mg of PLAG was absorbed through enterocytes and detected 28.2 mg of PLAG at cisterna chyli within 1 hour with about 50% of absorptive efficacy (FIG. 21E).

[2] = tested on: ADORA2A on the surface of HaCaT cells; assay: IMQ-induced ADORA2A trafficking, confocal microscopy; type: cell-based; conditions: IMQ 5 μg/ml after PLAG 100 μg/ml 1 hour
Procedure: HaCaT cells were divided into two groups: 1) IMQ treated group and 2) IMQ/PLAG treated group. For IMQ treated group, cells were stimulated with IMQ (5 μg/ml) for 0, 2.5, 5, 7.5, 10, 15, 30, 60, 120 minutes. For IMQ/PLAG treated group, cells were pre-incubated with PLAG (100 μg/ml) for 1 hour and then stimulated with IMQ (5 μg/ml) for 0, 2.5, 5, 7.5, 10, 15, 30, 60, 120 minutes. (A) To detect ADORA2A on the membrane surface, cells were fixed with 2% paraformaldehyde (Sigma-Aldrich) and were blocked with PBS containing 1% BSA (Gibco, Waltham, Mass., USA). They were incubated with rabbit anti-ADORA2A antibody (Thermo) and Alexa488 conjugated anti-rabbit IgG (Invitrogen) without permeabilization. (B) To detect intracellular ROS, cells were treated with FITC conjugated-CM-H2DCFDA (Invitrogen, Carlsbad, Calif., USA) for 30 min before PLAG treating. For confocal microscopy analysis, cells were washed with PBS and mounted in DAPI-containing fluorescence microscopy mounting medium (Invitrogen). Samples were analyzed with a laser scanning confocal microscope (Carl Zeiss, Oberkochen, Germany).

IMQ-induced psoriasis = assay: IMQ-induced psoriasis-like skin inflammation in mice; type: in vivo; conditions: PLAG 250 mg/kg/day orally, 5 days
Description: Vaseline (Unilever, United Kingdom) was used as a control vehicle cream. […] Control (non-treated) and IMQ-treated groups were administrated orally with the same PBS daily. Psoriasis was scored by a blinded investigator using published criteria based on the following parameters: erythema, scaling, and thickening. […] The tissue sections were stained with hematoxylin and eosin (H&E). For IHC analyses, back skin serial sections were cut and mounted on charged glass slides (Superfrost Plus; Fisher Scientific, Rochester, N.Y., USA). The sections were deparaffinized and then treated with 3% hydrogen peroxide in methanol to quench the endogenous peroxidase activity. […] The sections were incubated with the primary anti-mouse IL-17 (abcam) antibody (1:100) or rat anti-mouse neutrophil (NIMP-R14, Thermo Fisher Scientific Inc.) antibody (1:100) at 4° C. overnight. […] On Day 5, mice were sacrificed and the isolated tissues were analyzed (FIG. 10A). On Day 5, mice were sacrificed and the isolated back skin tissues of control, IMQ treated and IMQ/PLAG co-treated mice were analyzed (FIG. 10B). […] The scoring of control, IMQ treated, and IMQ/PLAG co-treated mice calculated by a blinded investigator using published criteria based on the following parameters: erythema, scaling, and thickening (FIG. 10C). IMQ-treated back skin and one ear were isolated and skin thickness was measured (FIGS. 10D and 10E). […]

[3] = Micelle particle size by DLS and TEM; type: physicochemical; conditions: micelles
Procedure: The formation of micelles composed of PLAG or POPC was prepared in RPMI1640 medium by vigorous stirring at a final concentration of 10 mg/ml. The particle size of PLAG and POPC micelles was measured by dynamic light scattering (Zetasizer 3000HS, Malvern Instruments Ltd., UK). The morphological examination of the micelles was performed by transmission electron microscopy (TEM) by dropping the samples into the carbon films on the copper grid for viewing with 2% (weight per volume) phosphotungstic acid staining.

Compound: CCCCC/C=C\C/C=C\CCCCCCCC(=O)OC(COC(C)=O)COC(=O)CCCCCCCCCCCCCCC (racemic) [PLAG, 1-palmitoyl-2-linoleoyl-3-acetylglycerol]
- PLAG detected at cisterna chyli / lymph fluid ([1]; 62.5 mg administered (2500mpk, 25 g mice), 1 hr): 28.2 mg
- time absorbed PLAG observed at the cisterna chyli ([1]; 50, 250, 500, 2500mpk, dose-dependent): ≤ 1 h
- time PLAG detected in cisterna chyli ([1]; 2500mpk, mice fasted 6 hours): 60 min
- absorptive efficacy ([1]; cisterna chyli within 1 hour): about 50%
- GPCR (ADORA2A) returns to its membrane [2]: 10 min
- GPCR (ADORA2A) trafficking starts [2]: 2.5 min
- IMQ-induced psoriasis symptoms (IMQ-induced psoriasis): effectively resolved
- average diameter (DLS) [3]: 107.6 nm
- particle shape (TEM) [3]: spherical shape

From US20220339135A1, “COMPOSITIONS AND METHODS FOR MODULATING AN INFLAMMATORY RESPONSE” (Enzychem Lifesciences Corporation, priority 2019, published 2022)
